Source: publication PMC6433685, “Histone deacetylase inhibitor LMK235 attenuates vascular constriction and aortic remodelling in hypertension” (Journal of Cellular and Molecular Medicine, 2019)

What was measured:
HDAC3 = target: T1, HDAC3 (Homo sapiens, UniProt O15379); test: HDAC3 fluorogenic enzyme assay kit (BPS Bioscience), cell-free; type: biochemical; settings: 0.001-10 μmol/L inhibitor
T1 construct: purchased BPS Bioscience 50063

HDAC4 = target: T2, HDAC4 (Homo sapiens, UniProt P56524); test: HDAC4 fluorogenic enzyme assay kit (BPS Bioscience), cell-free; type: biochemical; settings: 0.001-10 μmol/L inhibitor
T2 construct: purchased BPS Bioscience 50064
T2 sequence (P56524 whole entry): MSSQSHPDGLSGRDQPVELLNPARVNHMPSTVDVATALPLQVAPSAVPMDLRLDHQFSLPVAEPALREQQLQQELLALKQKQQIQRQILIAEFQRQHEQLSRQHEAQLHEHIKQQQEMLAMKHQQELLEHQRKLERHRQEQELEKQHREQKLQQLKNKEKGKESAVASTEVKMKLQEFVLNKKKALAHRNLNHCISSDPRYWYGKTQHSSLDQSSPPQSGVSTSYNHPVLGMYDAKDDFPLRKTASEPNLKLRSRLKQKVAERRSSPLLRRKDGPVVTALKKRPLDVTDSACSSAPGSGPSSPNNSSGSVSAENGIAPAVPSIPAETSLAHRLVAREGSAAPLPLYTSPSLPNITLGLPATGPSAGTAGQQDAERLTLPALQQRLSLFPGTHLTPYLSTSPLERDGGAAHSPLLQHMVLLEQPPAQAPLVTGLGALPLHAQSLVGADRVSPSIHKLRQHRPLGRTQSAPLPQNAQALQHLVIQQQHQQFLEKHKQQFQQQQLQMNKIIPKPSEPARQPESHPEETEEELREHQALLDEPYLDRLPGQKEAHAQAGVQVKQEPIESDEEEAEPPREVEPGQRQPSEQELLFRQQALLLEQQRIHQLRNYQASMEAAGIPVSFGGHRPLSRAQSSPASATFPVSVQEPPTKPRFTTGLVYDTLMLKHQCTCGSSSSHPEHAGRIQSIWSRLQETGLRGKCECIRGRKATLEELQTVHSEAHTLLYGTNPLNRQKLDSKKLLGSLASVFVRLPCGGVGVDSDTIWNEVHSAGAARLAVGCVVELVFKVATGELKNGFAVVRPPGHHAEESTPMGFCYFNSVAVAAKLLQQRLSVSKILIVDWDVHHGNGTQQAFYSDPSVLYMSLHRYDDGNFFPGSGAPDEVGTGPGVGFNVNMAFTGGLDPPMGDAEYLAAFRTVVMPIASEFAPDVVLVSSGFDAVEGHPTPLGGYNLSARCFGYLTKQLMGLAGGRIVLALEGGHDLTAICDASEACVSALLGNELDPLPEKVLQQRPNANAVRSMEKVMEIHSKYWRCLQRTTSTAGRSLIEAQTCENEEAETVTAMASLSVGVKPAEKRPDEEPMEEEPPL

HDAC5 = target: T3, HDAC5 (Homo sapiens, UniProt Q9UQL6); test: HDAC5 fluorogenic enzyme assay kit (BPS Bioscience), cell-free; type: biochemical; settings: 0.001-10 μmol/L inhibitor
T3 construct: purchased BPS Bioscience 50065
T3 sequence (Q9UQL6 whole entry): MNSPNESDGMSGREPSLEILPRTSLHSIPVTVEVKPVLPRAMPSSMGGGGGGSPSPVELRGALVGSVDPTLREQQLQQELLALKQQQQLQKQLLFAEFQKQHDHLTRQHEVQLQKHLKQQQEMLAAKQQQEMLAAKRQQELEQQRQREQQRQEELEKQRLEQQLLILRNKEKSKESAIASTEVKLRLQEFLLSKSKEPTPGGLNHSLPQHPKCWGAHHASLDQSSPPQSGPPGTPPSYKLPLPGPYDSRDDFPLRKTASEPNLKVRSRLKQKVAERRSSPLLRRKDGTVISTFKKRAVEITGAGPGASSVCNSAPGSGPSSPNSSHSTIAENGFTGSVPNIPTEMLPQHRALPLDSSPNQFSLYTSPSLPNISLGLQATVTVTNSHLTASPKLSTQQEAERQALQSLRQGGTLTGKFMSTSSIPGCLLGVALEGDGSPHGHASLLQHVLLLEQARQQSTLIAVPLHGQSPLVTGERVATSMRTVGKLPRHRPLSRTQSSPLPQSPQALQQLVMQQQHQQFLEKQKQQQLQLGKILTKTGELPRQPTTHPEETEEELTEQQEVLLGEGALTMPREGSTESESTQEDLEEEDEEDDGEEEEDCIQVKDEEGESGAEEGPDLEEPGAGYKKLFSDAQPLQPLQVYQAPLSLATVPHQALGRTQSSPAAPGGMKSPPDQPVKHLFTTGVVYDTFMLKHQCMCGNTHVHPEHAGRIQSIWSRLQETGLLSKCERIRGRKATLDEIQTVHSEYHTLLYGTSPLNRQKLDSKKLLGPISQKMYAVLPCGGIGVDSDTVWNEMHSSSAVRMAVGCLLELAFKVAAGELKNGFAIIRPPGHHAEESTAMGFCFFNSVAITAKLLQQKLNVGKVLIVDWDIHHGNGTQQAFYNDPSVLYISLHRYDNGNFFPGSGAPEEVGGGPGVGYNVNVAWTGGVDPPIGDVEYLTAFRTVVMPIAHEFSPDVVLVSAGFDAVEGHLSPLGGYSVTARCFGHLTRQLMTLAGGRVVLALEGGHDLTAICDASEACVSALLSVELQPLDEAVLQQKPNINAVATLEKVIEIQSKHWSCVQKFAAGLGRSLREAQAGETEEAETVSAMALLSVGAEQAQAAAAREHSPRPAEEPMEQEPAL
Description: Enzyme activity measurements of class I and IIa HDACs were performed using a cell‐free system and according to a method previously described.16 We used fluorogenic HDAC1 (#50061), HDAC2 (#50062), HDAC3 (#50063), HDAC4 (#50064), HDAC5 (#50065), HDAC6 (#50076), HDAC7 (#50067), HDAC8 (#50068) and HDAC9 (#50069) enzyme assay kits from BPS Bioscience (San Diego, CA, USA). To test the enzyme activity of LMK235, 0.001, 0.003, 0.01, 0.03, 0.1, 0.3, 1, 3 and 10 μmol/L concentrations were used. For the IC50 calculations, every data point was normalized to the vehicle (100% activity). The normalized data were fitted with a Hill non‐linear curve fit (OrigionPro 9.0).

HDAC6 = target: T4, HDAC6 (Homo sapiens, UniProt Q9UBN7); test: HDAC6 fluorogenic enzyme assay kit (BPS Bioscience), cell-free; type: biochemical; settings: 0.001-10 μmol/L inhibitor
T4 construct: purchased BPS Bioscience 50076
T4 sequence (Q9UBN7 whole entry): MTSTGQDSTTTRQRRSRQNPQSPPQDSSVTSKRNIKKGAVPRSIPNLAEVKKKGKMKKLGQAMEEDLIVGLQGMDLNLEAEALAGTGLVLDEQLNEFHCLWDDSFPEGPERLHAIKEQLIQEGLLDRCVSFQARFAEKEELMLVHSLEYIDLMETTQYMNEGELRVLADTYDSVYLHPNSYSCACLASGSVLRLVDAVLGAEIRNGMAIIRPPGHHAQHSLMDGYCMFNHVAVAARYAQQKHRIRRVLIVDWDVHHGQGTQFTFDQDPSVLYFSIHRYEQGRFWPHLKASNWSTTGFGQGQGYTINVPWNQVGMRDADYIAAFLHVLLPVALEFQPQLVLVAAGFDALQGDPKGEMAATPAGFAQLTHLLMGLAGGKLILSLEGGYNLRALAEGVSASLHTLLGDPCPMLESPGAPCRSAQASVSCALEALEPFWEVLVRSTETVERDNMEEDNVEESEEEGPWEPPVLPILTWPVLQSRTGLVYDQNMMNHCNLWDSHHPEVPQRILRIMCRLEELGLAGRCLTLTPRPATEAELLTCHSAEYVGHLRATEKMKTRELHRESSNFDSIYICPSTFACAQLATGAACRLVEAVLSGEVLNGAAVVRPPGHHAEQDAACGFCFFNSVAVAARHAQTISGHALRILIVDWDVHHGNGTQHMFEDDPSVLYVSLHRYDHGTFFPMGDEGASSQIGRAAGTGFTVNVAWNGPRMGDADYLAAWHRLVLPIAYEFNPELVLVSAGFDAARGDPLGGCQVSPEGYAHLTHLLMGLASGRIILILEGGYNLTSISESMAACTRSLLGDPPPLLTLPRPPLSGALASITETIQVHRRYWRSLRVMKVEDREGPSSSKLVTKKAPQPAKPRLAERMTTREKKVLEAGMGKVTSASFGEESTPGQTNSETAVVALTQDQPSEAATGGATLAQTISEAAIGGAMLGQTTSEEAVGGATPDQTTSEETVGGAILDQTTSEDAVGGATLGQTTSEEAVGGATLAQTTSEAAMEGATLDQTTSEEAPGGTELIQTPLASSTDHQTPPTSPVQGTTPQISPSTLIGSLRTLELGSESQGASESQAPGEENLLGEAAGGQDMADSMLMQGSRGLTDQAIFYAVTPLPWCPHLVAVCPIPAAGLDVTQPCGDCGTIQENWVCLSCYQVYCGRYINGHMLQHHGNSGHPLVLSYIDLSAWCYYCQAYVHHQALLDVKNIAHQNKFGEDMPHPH

HDAC8 = target: T5, HDAC8 (Homo sapiens, UniProt Q9BY41); test: HDAC8 fluorogenic enzyme assay kit (BPS Bioscience), cell-free; type: biochemical; settings: 0.001-10 μmol/L inhibitor
T5 construct: purchased BPS Bioscience 50068
T5 sequence (Q9BY41 whole entry): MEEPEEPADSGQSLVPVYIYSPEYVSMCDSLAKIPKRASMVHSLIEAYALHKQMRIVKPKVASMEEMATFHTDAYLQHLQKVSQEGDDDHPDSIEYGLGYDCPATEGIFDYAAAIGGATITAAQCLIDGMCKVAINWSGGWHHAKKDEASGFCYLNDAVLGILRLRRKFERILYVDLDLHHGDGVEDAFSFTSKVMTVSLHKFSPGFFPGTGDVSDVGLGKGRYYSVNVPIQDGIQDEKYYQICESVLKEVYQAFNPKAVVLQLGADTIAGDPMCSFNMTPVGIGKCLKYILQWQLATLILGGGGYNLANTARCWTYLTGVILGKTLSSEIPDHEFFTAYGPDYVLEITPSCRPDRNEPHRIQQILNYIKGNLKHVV

[1] = test system: spontaneously hypertensive rats (SHRs); test: Systolic BP (tail-cuff) in spontaneously hypertensive rats; type: in vivo
Description: (§1) For the essential hypertension animal experiment, SHRs were used. The SHR is the most used model animal model for hypertension and is generally regarded as an essential hypertension model.13 SHRs (6 weeks old, approximately 170 g) were purchased from Charles River (Yokohama, Japan). Rats were intraperitoneally administered LMK235 or vehicle every 3 days for 2 weeks (n = 4 per group).
Systolic BP was measured by the tail‐cuff method (Visitech Systems, BP‐2000). Animals (mice and rats) were trained to allow for the measuring of BP before administration of the drug. Animals were trained to enter the holder at the same time more than three times a week to measure BP. For angiotensin II‐mice, systolic BP was measured when the mice were awake the day before they are killed. For SHRs, systolic BP was measured daily for 2 weeks.

AT1 and ACE1 mRNA = AT1 and ACE1 mRNA (qRT-PCR) in aortas of angiotensin II-infusion mice; type: in vivo
Description: All animal procedures were approved by the Animal Experimental Committee of Chonnam National University Medical School (CNU IACUC‐H‐2014‐47) and carried out in accordance with the Guide for the Care and Use of Laboratory Animals (US National Institutes of Health Publications, 8th edition, 2011). CD‐1 mice (8 weeks old, 30‐35 g) were used in this study. Hypertension was induced by angiotensin II (Ang II, 1.3 mg/kg/day) infusion using 14‐day micro‐osmotic pumps (Alzet, model 1002; infusion rate of 0.25 μL/h) or saline alone. Ang II osmotic pumps were implanted subcutaneously after the injection of ketamine (120 mg/kg) and xylazine (6.2 mg/kg). One week after Ang II infusion, mice were administered LMK235 (1 or 3 mg/kg/day) or vehicle (dimethylsulphoxide [DMSO]) via intraperitoneal injection for 7 days. Mice were divided into three groups (n = 10‐12 per group): sham + vehicle, Ang II + vehicle, and Ang II + LMK235.
(§2) Total RNA from aortic tissue was isolated with TRIzol reagent (Invitrogen Life Technologies), and 1 μg of RNA was used for the reverse transcription reaction with TOPscript RT DryMIX (Enzynomics, South Korea). Quantification of mRNA levels was performed with the SYBR Green PCR kit (Enzynomics, South Korea).

SHR aortas = test: Aortic wall thickness (H&E) in SHRs; type: in vivo, rats
Text: as §1, with “group). The paraffin‐embedded tissues were cut into 3‐μm‐thick sections, deparaffinized with xylene and then rehydrated with graded alcohol. Haematoxylin and eosin (H&E) staining was performed as described, with slight modifications.15 The arterial wall thickness was measured using NIS Elements Software (Nikon, Japan).” for “group).”

A10 cells [2] = test: qRT-PCR in CaMKIIα-transfected A10 cells; type: cell-based, rat
Description: A10 cells were seeded into 12‐well dishes. A10 cells were transfected with the indicated concentrations of pCMV‐SPORT6‐CaMKIIα. After 24 hours of transfection, total RNA was extracted and quantitative real time polymerase chain reaction (qRT‐PCR) was performed. For knockdown of HDAC5, rat HDAC5 siRNA or sicontrol was used in A10 cells using RNAiMAX reagent according to the manufacturer's guidelines. A concentration of 100 nmol/L of siRNA was used.
as §2

A10 cells [3] = test: Western blot in A10 cells; type: cell-based, rat
Description: Cells were lysed in RIPA lysis buffer [150 mmol/L NaCl, 1% Triton X‐100, 1% sodium deoxycholate, 50 mmol/L Tris‐HCl pH 7.5, 2 mmol/L EDTA, 1 mmol/L PMSF, 1 mmol/L DTT, 1 mmol/L Na3VO4, and 5 mmol/L NaF] with protease inhibitor cocktail and sonicated. Approximately 30 μg of protein was separated by 10% sodium dodecyl sulphate‐polyacrylamide gel electrophoresis (SDS‐PAGE) and transferred to polyvinylidene difluoride (PVDF) membranes. After blocking with 5% skim milk for 1 hour, proteins were incubated with the primary antibodies overnight: anti‐cyclin D1 (1:1000), anti‐HDAC1 (1:1000), anti‐HDAC2 (1:1000), anti‐HDAC4 (1:1000) and anti‐HDAC5 (1:1000). As secondary antibodies, horse radish peroxidase‐linked antimouse or anti‐rabbit antibodies were used. Protein bands were visualized using Immobilon Western Detection Reagents (Millipore, Billerica, MA, USA). The Bio‐ID software was used to quantify protein expression (Vilber Lourmat, Eberhardzell, Germany).

T1 sequence (O15379 whole entry): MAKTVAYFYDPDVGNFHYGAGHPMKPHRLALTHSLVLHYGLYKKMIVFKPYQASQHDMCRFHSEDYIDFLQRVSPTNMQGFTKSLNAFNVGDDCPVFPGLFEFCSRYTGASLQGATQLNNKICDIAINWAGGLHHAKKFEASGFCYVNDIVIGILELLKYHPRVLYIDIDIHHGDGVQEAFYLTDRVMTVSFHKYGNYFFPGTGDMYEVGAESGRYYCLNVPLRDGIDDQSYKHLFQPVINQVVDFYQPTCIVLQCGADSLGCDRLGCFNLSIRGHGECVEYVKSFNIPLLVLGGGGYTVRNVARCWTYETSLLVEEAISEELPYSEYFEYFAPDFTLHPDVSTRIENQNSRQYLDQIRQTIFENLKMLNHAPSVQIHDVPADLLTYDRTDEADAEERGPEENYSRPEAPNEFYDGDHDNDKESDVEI
T1 sequence (Q9Y618 395-489 partner limits assumed): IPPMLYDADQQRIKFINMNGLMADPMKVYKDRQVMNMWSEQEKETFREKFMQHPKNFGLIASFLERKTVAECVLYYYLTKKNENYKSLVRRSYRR

Cc1cc(C)cc(C(=O)NOCCCCCC(=O)NO)c1 [LMK235]
IC50 (HDAC3): 37 nM | IC50 (HDAC4): > 20000 nM | IC50 (HDAC5): > 20000 nM | IC50 (HDAC6): 50 nM | IC50 (HDAC8): 1120 nM | hypertension lowering effect ([1]; 1 mg/kg/day (data not shown)): did not exhibit a hypertension lowering effect | duration of BP lowering effect ([1]; 3 mg/kg i.p. every 3 days): 2 days | systolic BP ([1]; 3 mg/kg i.p. every 3 days, 2 days after treatment): significantly lowered | systolic BP ([1]; 3 mg/kg i.p. every 3 days, 3 days after administration): restored to a comparable level | AT1 transcript levels in aorta (AT1 and ACE1 mRNA; Ang II-infusion mice): not reduced | aortic ACE1 or AT1 expression (AT1 and ACE1 mRNA; either hypertension model (Ang II mice and SHRs)): did not affect | aortic wall thickness (SHR aortas): reduced | cyclin D1 mRNA levels induced by overexpression of CaMKIIα (A10 cells [2]; A10 cells, 1 μmol/L, 24 h): reduced | mRNA levels of overexpressed CaMKIIα (A10 cells [2]; A10 cells, 1000 nmol/L, 24 hours): did not change | mRNA expression of HDAC1, 2, 3, 4, 5, 7 (A10 cells [2]; CaMKIIα-transfected A10 cells, 1 μmol/L, 24 h): significantly reduced | protein expression of class I and IIa/b HDAC (A10 cells [3]; A10 cells without CaMKIIα transfection, 18 h): reduced protein expression | CaMKIIα-induced cyclin D1 protein (A10 cells [3]; CaMKIIα-transfected A10 cells): reduced | HDAC4 and HDAC5 proteins (A10 cells [3]; CaMKIIα-transfected A10 cells): significantly reduced | protein expression of HDAC1 and HDAC2 (A10 cells [3]; CaMKIIα-transfected A10 cells, 18 h): significantly reduced
